Assay [1] deals with Candida albicans. The assay can be described thus: Antifungal activity against Candida albicans after 24 hrs by twofold serial dilution method. Particulars: for MIC: Candida albicans, 24 h. Type of assay: functional.
Assay [2] deals with Klebsiella pneumoniae. Nature of the assay: Antibacterial activity against Klebsiella pneumoniae ATCC 15490 after 24 hrs by twofold serial dilution method. Type of assay: functional. Particulars: for MIC: Klebsiella pneumoniae, ATCC 15490, 24 h.
The test system of assay [3] is Bacillus subtilis. The assay can be described thus: Antibacterial activity against Bacillus subtilis ATCC 451 after 24 hrs by twofold serial dilution method. Type of assay: functional. Particulars: for MIC: Bacillus subtilis, ATCC 451, 24 h.
In assay [4] the test system is Salmonella typhi. The assay can be described thus: Antibacterial activity against Salmonella typhi ATCC 24915 after 24 hrs by twofold serial dilution method. Type of assay: functional, Salmonella enterica subsp. enterica serovar Typhi. Particulars: for MIC: Salmonella enterica, ATCC 24915, 24 h.
Assay [5] deals with Aspergillus niger. Nature of the assay: Antifungal activity against Aspergillus niger after 72 to 96 hrs by twofold serial dilution method. Particulars: for MIC: Aspergillus niger. The assay is classed as functional.
The test system of assay [6] is Staphylococcus aureus. Nature of the assay: Antibacterial activity against Staphylococcus aureus ATCC 25825 after 24 hrs by twofold serial dilution method. Type of assay: functional. Particulars: for MIC: Staphylococcus aureus, ATCC 25825, 24 h.
Assay [7] has as its system Pseudomonas aeruginosa. Nature of the assay: Antibacterial activity against Pseudomonas aeruginosa ATCC 10145 after 24 hrs by twofold serial dilution method. Type of assay: functional. Particulars: for MIC: Pseudomonas aeruginosa, ATCC 10145, 24 h.
The subject of assay [8] is Cryptococcus neoformans. Nature of the assay: Antifungal activity against Cryptococcus neoformans after 72 to 96 hrs by twofold serial dilution method. Type of assay: functional. Particulars: for MIC: Cryptococcus neoformans.
For assay [9], the system named is Escherichia coli. The assay can be described thus: Antibacterial activity against Escherichia coli ATCC 25835 after 24 hrs by twofold serial dilution method. The assay is classed as functional. Particulars: for MIC: Escherichia coli, ATCC 25835, 24 h.

Results on twelve compounds are retold here after ChEMBL document CHEMBL1759834, “Synthesis, stereochemistry, antimicrobial evaluation and QSAR studies of 2,6-diaryltetrahydropyran-4-one thiosemicarbazones” (2011).

Converted amounts (≈) assume the structure as drawn.

One may read the MIC as the least concentration at which growth counts as inhibited.

On to `Cc1ccc([C@H]2O[C@@H](c3ccc(C)cc3)[C@H](C)/C(=N/NC(N)=S)[C@H]2C)cc1`, for which the “-logMIC” value in [1] stood at 4; in assay [2] it was 4; in assay [3], 4.301; in [5], 4.301; in assay [6] it was 4.301; in assay [7], 4. In addition, the “-logMIC” value in assay [8] turned out to be 4; in assay [9] it was 4.602. The MIC in [1] was determined as 100 µg/mL (≈ 262 µM); in [2], 100 µg/mL (≈ 262 µM); in [3], 50 µg/mL (≈ 131 µM); in [4], 50 µg/mL (≈ 131 µM); in assay [5], 50 µg/mL (≈ 131 µM); in [6], 50 µg/mL (≈ 131 µM). Further, the MIC in assay [7] was determined as 100 µg/mL (≈ 262 µM); in assay [8] it was 100 µg/mL (≈ 262 µM); in assay [9] it was 25 µg/mL (≈ 65.5 µM).
For the compound `C[C@@H]1/C(=N/NC(N)=S)C[C@@H](c2ccccc2)O[C@H]1c1ccccc1`, the “-logMIC” value in [1] worked out at 3.698; in assay [2], 4; in assay [6] it was 4; in [7] it was 3.698; in [8] it was 4.301. Also, the MIC in assay [1] was 200 µg/mL (≈ 589 µM); in [2], 100 µg/mL (≈ 295 µM); in assay [4] it was 50 µg/mL (≈ 147 µM); in assay [6], 100 µg/mL (≈ 295 µM); in [7], 200 µg/mL (≈ 589 µM); in [8], 50 µg/mL (≈ 147 µM).
Regarding `CC[C@@H]1/C(=N/NC(N)=S)C[C@@H](c2ccccc2)O[C@H]1c1ccccc1`, the “-logMIC” value in [1] turned out to be 3.698; in [2] it was 4; in [3] it was 4.301; in assay [5] it was 3.698; in [6], 4.301; in assay [7], 4. For the same compound, the “-logMIC” value in assay [8] is on record as 4.301; in [9] it was 4.602. Also, the MIC is 200 µg/mL (≈ 566 µM) in assay [1]; 100 µg/mL (≈ 283 µM) in [2]; 50 µg/mL (≈ 141 µM) in assay [3]; 50 µg/mL (≈ 141 µM) in [4]; 200 µg/mL (≈ 566 µM) in assay [5]; 50 µg/mL (≈ 141 µM) in assay [6]. Also, the MIC in [7] was 100 µg/mL (≈ 283 µM); in assay [8], 50 µg/mL (≈ 141 µM); in [9], 25 µg/mL (≈ 70.7 µM).
As for `C[C@@H]1/C(=N\NC(N)=S)[C@@H](C)[C@H](c2ccc(F)cc2)O[C@@H]1c1ccc(F)cc1`, the “-logMIC” value in assay [1] is on record as 4; in assay [2], 4.301; in assay [3], 4.602; in assay [5], 4; in [6], 4.301; in [7], 4. Further, the entries for the “-logMIC” value in assay [8] and in assay [9] were 4.602 and 4.301, respectively. Besides, the minimal inhibitory concentration (MIC) in assay [1] stood at 100 µg/mL (≈ 257 µM); in [2] it was 50 µg/mL (≈ 128 µM); in assay [3], 25 µg/mL (≈ 64.2 µM); in assay [4], 25 µg/mL (≈ 64.2 µM); in assay [5] it was 100 µg/mL (≈ 257 µM); in assay [6] it was 50 µg/mL (≈ 128 µM). The MIC worked out at 100 µg/mL (≈ 257 µM) in [7], 25 µg/mL (≈ 64.2 µM) in assay [8] and 50 µg/mL (≈ 128 µM) in assay [9].
Consider `C[C@@H]1/C(=N\NC(N)=S)[C@@H](C)[C@H](c2ccc(Cl)cc2)O[C@@H]1c1ccc(Cl)cc1`, for which the “-logMIC” value in assay [1] was found to be 4.602; in assay [2] it was 4.602; in [3], 4.602; in assay [5], 4; in assay [6], 4.602; in [7], 4.301. Further, the “-logMIC” value in [8] was 4.602; in [9], 4.301. The MIC in assay [1] was determined as 25 µg/mL (≈ 59.2 µM); in [2], 25 µg/mL (≈ 59.2 µM); in [3] it was 25 µg/mL (≈ 59.2 µM); in assay [4], 25 µg/mL (≈ 59.2 µM); in assay [5] it was 100 µg/mL (≈ 237 µM); in [6], 25 µg/mL (≈ 59.2 µM). Also, the results for the MIC in [7], in assay [8] and in assay [9] were 50 µg/mL (≈ 118 µM), 25 µg/mL (≈ 59.2 µM) and 50 µg/mL (≈ 118 µM), respectively.
With `C[C@@H]1/C(=N\NC(N)=S)[C@@H](C)[C@H](c2ccc(Br)cc2)O[C@@H]1c1ccc(Br)cc1`, the “-logMIC” value in assay [1] is recorded as 4.301; in assay [2], 4.602; in assay [3] it was 4.301; in [5], 3.698; in [6] it was 4.602; in assay [7] it was 4.903. The “-logMIC” value in assay [8] and in assay [9] was 4.301 each time. For the same compound, the MIC in assay [1] came out at 50 µg/mL (≈ 97.8 µM); in assay [2] it was 25 µg/mL (≈ 48.9 µM); in [3] it was 50 µg/mL (≈ 97.8 µM); in assay [4], 25 µg/mL (≈ 48.9 µM); in assay [5], 200 µg/mL (≈ 391 µM); in assay [6], 25 µg/mL (≈ 48.9 µM). For the same compound, the figures for the MIC in assay [7], in assay [8] and in assay [9] were 12.5 µg/mL (≈ 24.4 µM), 50 µg/mL (≈ 97.8 µM) and 50 µg/mL (≈ 97.8 µM), respectively.
With `COc1ccc([C@H]2O[C@@H](c3ccc(OC)cc3)[C@H](C)/C(=N/NC(N)=S)[C@H]2C)cc1`, the “-logMIC” value in [1] is recorded as 4.903; in assay [2] it was 4.301; in [3], 4.903; in [5] it was 4.301; in assay [6] it was 4.903; in assay [7], 4.301. Besides, the figures for the “-logMIC” value in assay [8] and in assay [9] were 3.698 and 4.602, respectively. In addition, the MIC amounted to 12.5 µg/mL (≈ 30.2 µM) in assay [1]; 50 µg/mL (≈ 121 µM) in assay [2]; 12.5 µg/mL (≈ 30.2 µM) in assay [3]; 50 µg/mL (≈ 121 µM) in [4]; 50 µg/mL (≈ 121 µM) in assay [5]; 12.5 µg/mL (≈ 30.2 µM) in assay [6]. Also, the MIC amounted to 50 µg/mL (≈ 121 µM) in assay [7], 200 µg/mL (≈ 484 µM) in assay [8] and 25 µg/mL (≈ 60.5 µM) in assay [9].
Regarding `C[C@@H]1/C(=N/NC(=S)Nc2ccccc2)C[C@@H](c2ccccc2)O[C@H]1c1ccccc1`, the “-logMIC” value in assay [1] came out at 4; in [2] it was 4; in [3], 4.301; in assay [4], 4; in assay [5], 4; in assay [6] it was 4.301. Also, the “-logMIC” value turned out to be 4.301 in assay [7], 4.903 in assay [8] and 4.301 in [9]. The MIC in assay [1] is 100 µg/mL (≈ 241 µM); in assay [2], 100 µg/mL (≈ 241 µM); in assay [3], 50 µg/mL (≈ 120 µM); in assay [4], 100 µg/mL (≈ 241 µM); in [5], 100 µg/mL (≈ 241 µM); in [6] it was 50 µg/mL (≈ 120 µM). The minimum inhibitory concentration (MIC) came out at 50 µg/mL (≈ 120 µM) in assay [7], 12.5 µg/mL (≈ 30.1 µM) in [8] and 50 µg/mL (≈ 120 µM) in [9].
As to `CC[C@@H]1/C(=N/NC(=S)Nc2ccccc2)C[C@@H](c2ccccc2)O[C@H]1c1ccccc1`, the “-logMIC” value in [1] is on record as 4; in assay [2], 4; in assay [3], 4; in assay [5], 4.301; in [6], 4.301; in assay [7] it was 4.602. The “-logMIC” value is 4.903 in assay [8] and 4 in assay [9]. Besides, the MIC in assay [1] was determined as 100 µg/mL (≈ 233 µM); in assay [2], 100 µg/mL (≈ 233 µM); in [3], 100 µg/mL (≈ 233 µM); in assay [4] it was 50 µg/mL (≈ 116 µM); in [5], 50 µg/mL (≈ 116 µM); in [6], 50 µg/mL (≈ 116 µM). Also, the MIC in assay [7] worked out at 25 µg/mL (≈ 58.2 µM); in [8], 12.5 µg/mL (≈ 29.1 µM); in [9], 100 µg/mL (≈ 233 µM).
As for `C[C@@H]1/C(=N\NC(=S)Nc2ccccc2)[C@@H](C)[C@H](c2ccc(F)cc2)O[C@@H]1c1ccc(F)cc1`, the “-logMIC” value was 4 in assay [1]; 4.301 in [2]; 4.301 in assay [3]; 4.602 in [4]; 4 in assay [5]; 4.301 in [6]. Besides, the “-logMIC” value in [7] amounted to 4.903; in assay [8], 5.204; in assay [9], 4. Also, the minimal inhibitory concentration (MIC) in assay [1] is 100 µg/mL (≈ 215 µM); in [2], 50 µg/mL (≈ 107 µM); in assay [3], 50 µg/mL (≈ 107 µM); in assay [4], 25 µg/mL (≈ 53.7 µM); in assay [5], 100 µg/mL (≈ 215 µM); in [6], 50 µg/mL (≈ 107 µM). The values for the MIC in assay [7], in assay [8] and in assay [9] were 12.5 µg/mL (≈ 26.8 µM), 6.25 µg/mL (≈ 13.4 µM) and 100 µg/mL (≈ 215 µM), respectively.
As for `Cc1ccc([C@H]2O[C@@H](c3ccc(C)cc3)[C@H](C)/C(=N/NC(=S)Nc3ccccc3)[C@H]2C)cc1`, the “-logMIC” value is on record as 5.204 in assay [1]; 4.301 in [3]; 4.602 in assay [5]; 4 in assay [6]; 4 in [7]; 4.301 in [8]. In addition, the “-logMIC” value in assay [9] was 4.301. The MIC turned out to be 6.25 µg/mL (≈ 13.7 µM) in assay [1]; 50 µg/mL (≈ 109 µM) in [3]; 50 µg/mL (≈ 109 µM) in assay [4]; 25 µg/mL (≈ 54.6 µM) in assay [5]; 100 µg/mL (≈ 219 µM) in assay [6]; 100 µg/mL (≈ 219 µM) in assay [7]. Further, the MIC in assay [8] and in [9] was 50 µg/mL (≈ 109 µM) each time.
`C[C@@H]1[C@H](O)[C@@H](C)/C=C/C=C/C=C/C=C/C=C/C=C/C=C/[C@H](O[C@@H]2O[C@H](C)[C@@H](O)[C@H](N)[C@@H]2O)C[C@@H]2O[C@](O)(C[C@@H](O)C[C@@H](O)[C@H](O)CC[C@@H](O)C[C@@H](O)CC(=O)O[C@H]1C)C[C@H](O)[C@H]2C(=O)O` [AMPHOTERICIN B]: the MIC is 25 µg/mL (≈ 27.1 µM) in assay [1], 50 µg/mL (≈ 54.1 µM) in assay [5] and 25 µg/mL (≈ 27.1 µM) in assay [8]. Further, the results for the “-logMIC” value in assay [5] and in assay [8] were 4.301 and 4.602, respectively.
